Measurements taken from US5770573A, “CS-1 peptidomimetics, compositions and methods of using the same” (Cytel Corporation, priority 1995, dated 1998).
Square brackets hold non-standard residues; d marks the D form. Peptide text beside a SMILES is read from it. * marks the point of attachment. PhAc = O=C(Cc1ccccc1)*

Columns and labels:
[1] = system: rabbit cardiac allograft coronary arteries; test: Rabbit cardiac allograft model; format: in vivo; for Expression on Coronary Arteries: ICAM-1: key: -: negative; ±: minimal; +: little; ++: moderately abundant; +++: very abundant; for Expression on Coronary Arteries: Macrophages: key: -: negative; ±: minimal; +: little; ++: moderately abundant; +++: very abundant; for Expression on Coronary Arteries: T cells: key: -: negative; ±: minimal; +: little; ++: moderately abundant; +++: very abundant; for Expression on Coronary Arteries: Total Fibronectin: key: -: negative; ±: minimal; +: little; ++: moderately abundant; +++: very abundant
Source text: New Zealand white rabbit SPF hearts were allografted into the necks of similar rabbits to assay a graft-vs-host immunorejection model and the affect of a contemplated compound on that immunoinflammatory response.
Experimental animal model New Zealand white female rabbits (Charles River Lab., Saint Laurent, Quebec), between 3.5 and 4 kg underwent heterotopic cardiac transplant following an experimental protocol previously described [Alonso et al., Am. J. Pathol., 87:415-442 (1977); Clausell et al., Circulation, 89:2768-2779 (1994)]. The animals were unselected to favor an HLA-mismatch, the host rabbits were Pasteurella-free and the donors, outbred animals. Both host and donor rabbits were fed Purina 5321-0.5 percent cholesterol diet (Research Diets Inc., New Brunswick, N.J.), a strategy that has proven useful in accelerating the process of allograft arteriopathy [Alonso et al., Am. J. Pathol., 87:415-442 (1977)]. The diet was commenced four days prior to the transplant and continued in the recipient of the transplant until the completion of the experimental period.
The technique of heterotopic cardiac transplantation has been previously described [Clausell et al., Circulation, 89:2768-2779 (1994)]. Briefly, a vertical incision was performed in the anterior aspect of the neck of the recipient rabbit and the left common carotid artery and the ipsilateral external jugular vein were isolated. The cardiac allograft was placed in the neck by anastomosing the aorta end-to-side to the recipient's carotid artery and the pulmonary end-to-side to the recipient's external jugular vein, following a total period of ischemia for the donor hearts of approximately 30 minutes. Postoperative care was in compliance with the Principles of Laboratory Animal Care formulated by the Canadian National Society for Medical Research.
Beginning the day of the transplant, the animals were randomized and treated with either scrambled compound (control group) at 1 mg/kg s.c. or the inhibitor compound at 1 mg/kg s.c. The doses of the compounds were empirically extrapolated to the in vivo model based on preliminary in vitro studies, of Table 1. No other immunosuppression therapy was administered. The grafts were monitored daily by palpation and maintained for 7 to 8 days, a previously described endpoint that was associated with myocardial rejection (impaired cardiac contractility) and development of the allograft arteriopathy in this model [Clausell et al., Circulation, 89:2768-2779 (1994)]. A total of fourteen animals were studied in the control (n=7) and treated (n=7) groups.
Preparation of the hearts The animals were sacrificed using a lethal dose of euthanol (480 mg i.v.) (MTC Pharmaceutical, Cambridge, Oreg.), host and donor hearts were removed, and the coronary arteries were perfused with saline through the aorta, followed by light fixation by perfusion with 2 percent paraformaldehyde (Sigma, St, Louis, Mo.). […] Different sections of the hearts were either saved in 10 percent formalin (BDH Inc., Toronto, ON) for light microscopy studies or immediately frozen in O.T.C. Compound Tissue Tek (Miles Inc., Elkart, In.) for specific immunohistochemistry studies.
Three different paraffin-embedded tissue sections from host and donor hearts from both control and treated rabbits were stained by the Movat pentachrome method for light microscopy. Morphometric analysis was performed using a Zeiss microscope attached to a computer-generated video analysis system (Perceptics Inc., NuVision software), as described in Clausell et al., Circulation, 89:2768-2779 (1994). The number of vessels with intimal lesions were counted in all three heart sections from each animal studied and are expressed as a percentage of the total vessel number.
In the host hearts, 999 vessels in the control group and 1054 vessels in the treated group were analyzed. In the donor hearts, 827 vessels in the control group and 617 vessels in the treated group were analyzed. […]

[2] = Loss of potency in PBS containing 10 percent mouse or human serum; conditions: PBS at 7.2-7.4 with 10 percent mouse or human serum; 24 hours

**Q.** Which “Expression on Coronary Arteries: ICAM-1” value ([1]; 1 mg/kg s.c., 7 to 8 days) does the source give for `CC(C)C[C@H](NC(=O)Cc1ccccc1)C(=O)N[C@@H](CC(=O)O)C(=O)N[C@@H](Cc1ccccc1)C(=O)N1CCC[C@@H]1C(N)=O` [Compound ID No. 896.52, N-phenylacetyl-Leu-Asp-Phe-D-Pro-NH2] (PhAc-LDF[dP]-NH2) here?
**A.** ±

**Q.** And the “Expression on Coronary Arteries: Macrophages” value ([1]; 1 mg/kg s.c., 7 to 8 days)?
**A.** ±

**Q.** What about the “Expression on Coronary Arteries: T cells” value ([1]; 1 mg/kg s.c., 7 to 8 days) of the same compound?
**A.** ±

**Q.** What about the “Expression on Coronary Arteries: Total Fibronectin” value ([1]; 1 mg/kg s.c., 7 to 8 days) of the same compound?
**A.** ±

**Q.** What about the “Expression on Coronary Arteries: VCAM-1” value ([1]; 1 mg/kg s.c., 7 to 8 days) of the same compound?
**A.** ±

**Q.** What about the “Expression on Coronary Arteries: MHC Class II” value ([1]; 1 mg/kg s.c., 7 to 8 days, immunoperoxidase score) of the same compound?
**A.** ±

**Q.** And the “Vessel Intimal Thickening: Percent of Vessels” value ([1]; donor hearts, 1 mg/kg s.c.)?
**A.** 35%

**Q.** What about the “Vessel Intimal Thickening: Severity (Percent of Vessel area)” value ([1]; donor hearts, 1 mg/kg s.c.) of the same compound?
**A.** 16%

**Q.** And the “Baseline (rabbit own host heart) of incidence” value ([1]; host heart)?
**A.** 12%

**Q.** And the “Baseline (rabbit own host heart) of severity” value ([1]; host heart)?
**A.** 12%

**Q.** What about the “loss of potency in serum” value [2] of the same compound?
**A.** no loss of potency
